From patent publication US20230183818A1, “ANTIBIOTIC SUSCEPTIBILITY OF MICROORGANISMS AND RELATED MARKERS, COMPOSITIONS, METHODS AND SYSTEMS” (priority 2018, published 2023)
Converted amounts (≈) assume the structure as drawn.

tested on: Neisseria gonorrhoeae; settings: resistant isolates, all time points (0-15 min)
Method: Cultures were diluted (5X) into HFB. Each isolate culture was split into “treated” and “control” tubes.
During incubation, samples were collected for RNA sequencing at 5, 10, and 15 min (300 µL aliquot of sample was mixed into 600 µL of Qiagen RNA Protect Reagent (Qiagen, Hilden, Germany) for immediate RNA stabilization).
RNA was extracted using the Enzymatic Lysis of Bacteria protocol of the Qiagen RNeasy Mini Kit and processed according to the manufacturer’s protocol. DNA digestion was performed during extraction using the Qiagen RNase-Free DNase Set.
The quality of extracted RNA was measured using an Agilent 2200 TapeStation (Agilent, Santa Clara, CA, USA). Extracted RNA samples were prepared for sequencing using the NEBNext Ultra RNA Library Prep Kit for Illumina (New England Biolabs, Ipswitch, MA, USA) and the NEBNExt Multiplex Oligos for Illumina. […] Raw reads from the sequenced libraries were subjected to quality control to filter out low-quality reads and trim the adaptor sequences using Trimmomatic (version 0.35).
The reads were aligned to the FA 1090 strain of N. gonorrhoeae (NCBI Reference Sequence: NC_002946.2) using Bowtie2 (version 2.2.5) and quantified using the Subread package (version 1.5.0-p1). A pseudocount of 1 was added to the gene quantification; gene expression was defined in transcripts per million (TPM). […]

Compound | transcriptional response in resistant isolates
O=C(O)c1cn(C2CC2)c2cc(N3CCNCC3)c(F)cc2c1=O [Ciprofloxacin, ciprofloxacin] | did not significantly respond

same assay, conditions: susceptible isolates, 15 min exposure

Compound | expression response of the six candidate markers (porB, rpmB, tig, yebC, pilB, cysK)
O=C(O)c1cn(C2CC2)c2cc(N3CCNCC3)c(F)cc2c1=O [Ciprofloxacin, ciprofloxacin] | downregulation

tested on: Neisseria gonorrhoeae; settings: Neisseria gonorrhoeae; cited from earlier work

Compound | resistant MIC breakpoint | susceptible MIC breakpoint
O=C(O)c1cn(C2CC2)c2cc(N3CCNCC3)c(F)cc2c1=O [Ciprofloxacin, ciprofloxacin] | 1.00 microgram/mL | 0.06 microgram/mL

same assay, conditions: cited from earlier work

Compound | MIC Breakpoint, I (intermediate) | MIC Breakpoint, R (resistant) | MIC Breakpoint, S (susceptible)
CO/N=C(\C(=O)N[C@@H]1C(=O)N2C(C(=O)O)=C(COC(N)=O)CS[C@H]12)c1ccco1 [Cefuroxime] | 2 µg/mL (≈ 4.71 µM) | ≥4 µg/mL | ≤1 µg/mL
CCn1cc(C(=O)O)c(=O)c2cc(F)c(N3CCNCC3)nc21 [Enoxacin] | 1 µg/mL (≈ 3.12 µM) | ≥2 µg/mL | ≤ 0.5 µg/mL
CC(C)(O/N=C(\C(=O)N[C@@H]1C(=O)N2C(C(=O)[O-])=C(C[n+]3ccccc3)CS[C@H]12)c1csc(N)n1)C(=O)O [Ceftazidime] | – | – | ≤ 0.5 µg/mL
CO/N=C(\C(=O)N[C@@H]1C(=O)N2C(C(=O)O)=C(CSc3nc(=O)c(=O)[nH]n3C)CS[C@H]12)c1csc(N)n1 [Ceftriaxone] | – | – | ≤ 0.25 µg/mL
CO/N=C(\C(=O)N[C@@H]1C(=O)N2C(C(=O)O)=CCS[C@H]12)c1csc(N)n1 [Ceftizoxime] | – | – | ≤ 0.5 µg/mL
CO/N=C(\C(=O)N[C@@H]1C(=O)N2C(C(=O)O)=C(COC(C)=O)CS[C@H]12)c1csc(N)n1 [Cefotaxime] | – | – | ≤ 0.5 µg/mL
CO[C@@]1(NC(=O)Cc2cccs2)C(=O)N2C(C(=O)O)=C(COC(N)=O)CS[C@@H]21 [Cefoxitin] | 4 µg/mL (≈ 9.36 µM) | ≥8 µg/mL | ≤2 µg/mL
Penicillin | 0.12 to 1 µg/mL | ≥2 µg/mL | ≤ 0.06 µg/mL
CO[C@@]1(NC(=O)CSCC#N)C(=O)N2C(C(=O)O)=C(CSc3nnnn3C)CS[C@@H]21 [Cefmetazole] | 4 µg/mL (≈ 8.48 µM) | ≥8 µg/mL | ≤2 µg/mL
CO/N=C(\C(=O)N[C@@H]1C(=O)N2C(C(=O)[O-])=C(C[N+]3(C)CCCC3)CS[C@H]12)c1csc(N)n1 [Cefepime] | – | – | ≤ 0.5 µg/mL
CCn1cc(C(=O)O)c(=O)c2cc(F)c(N3CCNC(C)C3)c(F)c21 (stereo not shown) [Lomefloxacin] | 0.25 to 1 µg/mL | ≥2 µg/mL | ≤ 0.12 µg/mL
CN1CCN(c2c(F)cc3c(=O)c(C(=O)O)cn(CCF)c3c2F)CC1 [Fleroxacin] | 0.5 µg/mL (≈ 1.35 µM) | ≥1 µg/mL | ≤ 0.25 µg/mL
O=C(O)c1cn(C2CC2)c2cc(N3CCNCC3)c(F)cc2c1=O [Ciprofloxacin, ciprofloxacin] | 0.12 to 0.5 µg/mL | ≥1 µg/mL | ≤ 0.06 µg/mL
CN[C@@H]1[C@H](O)[C@H](NC)[C@H]2O[C@@]3(O)C(=O)C[C@@H](C)O[C@H]3O[C@@H]2[C@H]1O [Spectinomycin] | 64 µg/mL (≈ 193 µM) | ≥ 128 µg/mL | ≤ 32 µg/mL
CO/N=C(\C(=O)N[C@@H]1C(=O)N2C(C(=O)O)=C(C)CS[C@H]12)c1csc(N)n1 [Cefetamet] | – | – | ≤ 0.5 µg/mL
